{
  "source": "patent US8980223B2",
  "about": "“Methods of preventing ischemic injury using peripheral nociceptive stimulation” (University of Cincinnati, priority 2009, dated 2015)",
  "key": {"[1]": {"system": "murine ischemia/reperfusion model of myocardial infarction", "assay": "Mouse ischemia/reperfusion model, topical capsaicin 15 min prior to coronary occlusion, infarct size", "format": "in vivo, mice"}, "[2]": {"system": "murine ischemia/reperfusion model of myocardial infarction", "assay": "Topical capsaicin during ischemia or after reperfusion, infarct size", "format": "in vivo, mice", "details": "p<0.01"}, "TRPV1": {"molecular_target": "T1, TRPV1 (Mus musculus, UniProt Q704Y3)", "T1 construct": "data from wild-type mice topically treated with capsaicin administered to the abdomen; from tissue; host or cells: living mice; skin nociceptors (C-fibers) of the abdomen", "T1 sequence (Q704Y3 whole entry, the tested form may be a part)": "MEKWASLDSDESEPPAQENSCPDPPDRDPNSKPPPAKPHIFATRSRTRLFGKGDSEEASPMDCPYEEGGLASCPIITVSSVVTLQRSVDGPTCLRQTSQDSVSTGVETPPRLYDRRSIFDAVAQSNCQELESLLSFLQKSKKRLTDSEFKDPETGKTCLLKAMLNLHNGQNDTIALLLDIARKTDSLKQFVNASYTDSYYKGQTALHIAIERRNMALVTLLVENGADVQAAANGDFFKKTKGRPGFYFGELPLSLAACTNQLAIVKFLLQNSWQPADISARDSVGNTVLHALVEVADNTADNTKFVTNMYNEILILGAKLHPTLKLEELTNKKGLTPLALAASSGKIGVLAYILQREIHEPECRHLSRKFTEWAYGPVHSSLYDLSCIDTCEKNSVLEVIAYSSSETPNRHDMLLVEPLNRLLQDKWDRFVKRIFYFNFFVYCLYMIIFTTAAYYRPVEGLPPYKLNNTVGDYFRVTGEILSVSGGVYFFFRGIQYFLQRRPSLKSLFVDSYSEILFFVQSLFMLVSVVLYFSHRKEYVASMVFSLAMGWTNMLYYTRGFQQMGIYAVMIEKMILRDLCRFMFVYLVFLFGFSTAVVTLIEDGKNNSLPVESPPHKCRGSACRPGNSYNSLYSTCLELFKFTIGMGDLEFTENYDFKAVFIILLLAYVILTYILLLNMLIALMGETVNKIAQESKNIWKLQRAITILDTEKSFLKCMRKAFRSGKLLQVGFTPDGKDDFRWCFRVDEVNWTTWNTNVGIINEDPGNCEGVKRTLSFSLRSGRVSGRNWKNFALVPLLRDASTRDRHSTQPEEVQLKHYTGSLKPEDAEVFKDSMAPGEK", "assay": "Topical capsaicin before ischemia/reperfusion in wild-type versus TRPV1 knock-out mice, infarct size", "format": "in vivo", "details": "capsaicin topically to the abdomen prior to ischemia and reperfusion, compared to TRPVKO mice", "quoted_text": "Infarct size as a percent of risk region is presented on the y-axis. The first bar presents data from wild-type mice topically treated with capsaicin administered to the abdomen prior to surgical induction of ischemia and reperfusion (WT, Capsaicin, hatched bar). The second bar presents data from TRPV 1 knockout mice topically treated with capsaicin administered to the abdomen prior to surgical induction of ischemia and reperfusion (TRPVKO, Capsaicin, dotted bar). The third bar presents data from TRPV 1 knockout mice subjected to sham treatment prior to surgical induction of ischemia and reperfusion (TRPVKO No capsaicin, empty bar)."}, "protein kinase C(PKC)": {"system": "protein kinase C(PKC)", "assay": "Chelerythrine before electrical stimulation and ischemia/reperfusion, infarct size", "format": "in vivo, mice", "details": "chelerythrine plus electrical stimulation compared with vehicle alone plus electrical stimulation", "text": "FIG. 3C presents data from wild-type mice treated with chelerythrine prior to sham treatment or electrical stimulation followed by the ischemia/reperfusion procedure. Chelerythrine is a relatively selective general protein kinase C(PKC) inhibitor. Most previously described forms of preconditioning or postconditioning require PKC activation in cardiomyocytes. Typically this is indicative of activation and/or repression of specific PKC isoforms in the hearts. Infarct size as a percentage of risk region was assessed and is indicated. The hatched bar presents data from mice treated with chelerythrine and subject to sham treatment (chelerythrine control). The dotted bar presents data from mice treated with vehicle alone and electrically stimulated (vehicle ES). […]\nA previously described mouse model of ischemia and reperfusion (I/R) injury in vivo was used (Ren et al. (2004) J. Surg Res. 121(1):120-129; Fan et al (2005)Circulation 111(14):1792-1799; Zhou et al (2007)Cardiovascular Research 75(3) 487-497; and Diwan et a/(2007) J. Clinical Investigation 117(10):2825-2833, herein incorporated by reference in their entirety). […] All mice were continuously monitored by electrocardiography (ECG) (DigiMed Sinus Rhythm Analyzer, Micro-Med Inc), and mice without evidence of ischemia and timely reperfusion were excluded from the studies. […]"}, "[3]": {"system": "peripheral C-fiber nociceptors", "assay": "Lidocaine before remote electrical stimulation and ischemia/reperfusion, infarct size", "format": "in vivo, mice", "details": "2% lidocaine, 10 μl s.c., prior to electrical stimulation and ischemia; compared with vehicle ES", "description": "(§1) A previously described mouse model of ischemia and reperfusion (I/R) injury in vivo was used (Ren et al. (2004) J. Surg Res. 121(1):120-129; Fan et al (2005)Circulation 111(14):1792-1799; Zhou et al (2007)Cardiovascular Research 75(3) 487-497; and Diwan et a/(2007) J. Clinical Investigation 117(10):2825-2833, herein incorporated by reference in their entirety). Mice were anesthetized with sodium pentobarbital (90 mg/kg ip), intubated with PE 90 tubing and ventilated using a mouse miniventilator (Harvard Apparatus, Holliston, Mass.). All mice were continuously monitored by electrocardiography (ECG) (DigiMed Sinus Rhythm Analyzer, Micro-Med Inc), and mice without evidence of ischemia and timely reperfusion were excluded from the studies. […]\n(§2) Mice were euthanized either 4 or 24 hours after reperfusion and infarct size determination and imaging were performed by previously described methods (Ren et al. (2004) J. Surg Res. 121(1):120-129 and Guo et al (1998) Am J. Physiology 275(4 Pt 2):H1375-1387, herein incorporated by reference in their entirety). […] Infarct size was determined by the method of Fishbein et al (1981) Am Heart J 101(5):593-600, herein incorporated by reference in its entirety. […]"}, "TRPV2": {"molecular_target": "T2, TRPV2 (Mus musculus, UniProt Q9WTR1)", "T2 construct": "mice that received topical probenecid application; from tissue; host or cells: living mice (topical application to skin)", "T2 sequence (Q9WTR1 1-756)": "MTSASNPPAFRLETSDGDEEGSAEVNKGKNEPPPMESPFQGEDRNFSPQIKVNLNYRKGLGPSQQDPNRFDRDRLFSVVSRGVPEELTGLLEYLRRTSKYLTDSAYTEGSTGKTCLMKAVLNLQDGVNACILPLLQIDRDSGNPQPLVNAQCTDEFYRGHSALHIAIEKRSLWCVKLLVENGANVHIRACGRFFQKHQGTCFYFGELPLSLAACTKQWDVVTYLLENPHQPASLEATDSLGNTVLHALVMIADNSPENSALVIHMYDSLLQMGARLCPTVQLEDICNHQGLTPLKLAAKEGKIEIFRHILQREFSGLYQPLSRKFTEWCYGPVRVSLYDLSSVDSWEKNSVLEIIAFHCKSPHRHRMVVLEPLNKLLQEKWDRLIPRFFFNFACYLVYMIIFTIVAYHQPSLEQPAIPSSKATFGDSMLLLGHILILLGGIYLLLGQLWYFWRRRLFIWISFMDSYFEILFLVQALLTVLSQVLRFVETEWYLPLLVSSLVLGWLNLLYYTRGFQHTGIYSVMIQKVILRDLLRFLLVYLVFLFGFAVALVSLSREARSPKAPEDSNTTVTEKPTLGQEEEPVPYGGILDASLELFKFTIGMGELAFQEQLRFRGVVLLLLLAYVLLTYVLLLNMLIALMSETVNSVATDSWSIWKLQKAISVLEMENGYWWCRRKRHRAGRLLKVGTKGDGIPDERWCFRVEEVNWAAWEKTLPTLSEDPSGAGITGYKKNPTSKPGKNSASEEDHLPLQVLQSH", "assay": "Topical probenecid in mouse ischemia/reperfusion model, infarct size", "format": "in vivo, mice", "details": "topical probenecid application versus control animals; p<0.07", "text": "FIG. 11 presents a graph of infarct size as a percent of risk area in mice that received topical probenecid application (empty bars) or sham treatments (hatched bars).\nas §1, §2"}, "β-adrenergic receptor": {"system": "β-adrenergic receptor", "set-up": "species or system mice", "details": "mouse, in vivo", "experimental": "The mice then underwent either sham treatment or electrical stimulation (ES) followed by the ischemia/reperfusion procedure.\nA lateral thoracotomy (1.5 cm incision between the second and third ribs was performed to provide exposure of the left anterior descending coronary artery (LAD). Vascular bundles in the vicinity were coagulated using a microcoagulator (Medical Industries Inc, St. Petersburg Fla.). An 8-O nylon suture was placed around the LAD 2-3 mm from the tip of the left auricle and a piece of soft silicon tubing (0.64 mm ID, 1.19 mm OD) was placed over the artery. Coronary occlusion was achieved by tightening and tying the suture. Coronary occlusion was for 45 minutes, unless indicated otherwise. At the end of the occlusion, the suture was untied and left in place. Ischemia was confirmed by visual observation of cyanosis and by continuous ECG monitoring (QRS complex widening, T wave inversion and ST segment changes); reperfusion was confirmed by reversal of these effects. […]"}},
  "note": "Entries after “also recorded” stand apart in the source; their conditions may differ.",
  "data": [
    {"smiles": "COc1cc(CNC(=O)CCCC/C=C/C(C)C)ccc1O", "note": "[capsaicin, (6E)-N-[(4-Hydroxy-3-methoxyphenyl)methyl]-8-methyl-6-nonenamide]", "values": [
      {"measurement": "reduction of infarct size", "setting": "[1]; remote pre-conditioning, stimulus given 15 minutes prior to the ischemia, 45 min coronary occlusion, versus sham, n=6", "value": 85, "unit": "%"},
      {"measurement": "Infarct size as a percent of the risk region", "setting": "[1]; remote pre-treatment prior to ischemia/reperfusion versus sham, P<0.01", "value": "substantial reduction in infarct size"},
      {"measurement": "infarct size as a percent of risk area", "setting": "[2]; topical capsaicin application after reperfusion (postCON) versus sham", "value": "significantly reduces infarct size"},
      {"measurement": "infarct size as a percent of risk area", "setting": "[2]; topical capsaicin application during ischemia (conditioning) versus sham", "value": "significantly reduces infarct size"},
      {"measurement": "infarct size as a percent of risk region", "setting": "TRPV1", "value": "reduced myocardial infarct size"}
    ]},
    {"smiles": "COc1ccc2c(c[n+](C)c3c4cc5c(cc4ccc23)OCO5)c1OC", "note": "[chelerythrine]", "values": [
      {"measurement": "Infarct size as a percentage of risk region", "setting": "protein kinase C(PKC)", "value": "reduced inhibition of ischemia-related tissue damage"}
    ]},
    {"smiles": "CCN(CC)CC(=O)Nc1c(C)cccc1C", "note": "[lidocaine]", "values": [
      {"measurement": "infarct size as a percent of risk region", "setting": "[3]", "value": "no significant cardioprotection relative to controls; also recorded: significantly higher percentage of risk region"}
    ]},
    {"smiles": "CCCN(CCC)S(=O)(=O)c1ccc(C(=O)O)cc1", "note": "[probenecid]", "values": [
      {"measurement": "infarct size as a percent of risk region", "setting": "TRPV2", "value": "significantly reduced"}
    ]},
    {"smiles": "CC(C)NCC(O)COc1cccc2ccccc12", "note": "(stereo not drawn) [propanolol]", "values": [
      {"measurement": "Infarct size as a percentage of risk region", "setting": "β-adrenergic receptor", "value": "significantly higher"}
    ]}
  ]
}
